Experiments:
OAT1 = molecular target: T1, OAT1 (Homo sapiens, UniProt Q4U2R8); test: Membrane transportation evaluation using Transwell: cellular intake of radiolabeled Adefovir by monolayer of re-seeded aggregate-cultured cells (Test 7); type: in vitro ADME
T1 construct: Adefovir is a drug as a substrate for OAT1, that is, a drug that is transported by OAT1; host or cells: human renal proximal tubule epithelial cells, aggregate-cultured and re-seeded as a monolayer on a Transwell insert
T1 sequence (Q4U2R8 1-563): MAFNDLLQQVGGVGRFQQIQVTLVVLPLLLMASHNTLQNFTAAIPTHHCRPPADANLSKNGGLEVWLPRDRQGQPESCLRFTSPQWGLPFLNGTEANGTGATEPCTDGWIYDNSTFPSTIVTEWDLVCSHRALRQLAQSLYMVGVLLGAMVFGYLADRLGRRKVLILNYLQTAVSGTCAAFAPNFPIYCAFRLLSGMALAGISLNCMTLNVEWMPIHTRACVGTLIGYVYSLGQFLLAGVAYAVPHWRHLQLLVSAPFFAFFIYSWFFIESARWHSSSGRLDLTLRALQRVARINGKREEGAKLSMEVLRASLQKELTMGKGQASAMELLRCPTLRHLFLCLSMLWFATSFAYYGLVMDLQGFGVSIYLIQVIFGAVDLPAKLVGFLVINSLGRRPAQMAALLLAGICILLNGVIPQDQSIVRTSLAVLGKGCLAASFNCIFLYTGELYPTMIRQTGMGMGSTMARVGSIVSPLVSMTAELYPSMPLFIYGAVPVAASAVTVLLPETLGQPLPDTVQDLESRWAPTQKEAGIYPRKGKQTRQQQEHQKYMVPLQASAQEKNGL
Method: (§1) First, aggregates were formed, and a cell suspension was prepared from the aggregates to thereby re-seed the cells on the insert in the same manner as in Test 2. The seeding density was set to 4×10^4/well (12×10^4 cells/cm^2). Then, on the day after re-seeding (within 18 to 24 hours of re-seeding), membrane transport evaluation was performed using Transwell. In the membrane transport evaluation, radiolabeled Adefovir and radiolabeled Metformin were used. Adefovir is a drug as a substrate for OAT1, that is, a drug that is transported by OAT1. Metformin is a drug as a substrate for OCT2, that is, a drug that is transported by OCT2.
(§2) An assay buffer with each substrate added to a HBSS buffer was added to insert of the Transwell and treated for a predetermined time. For the Adefovir test, the treatment time was 2 minutes. For the Metformin test, the treatment time was 10 minutes. The cells were then retrieved, a cell suspension was prepared, and the radioisotopes in the cell suspension were quantified. As a result, the amount of substrate intake into the cell from the cellular apical membrane side was evaluated. The amount of substrate intake was also evaluated in the same manner when an inhibitor of OAT1, Probenecid, was added to the assay buffer and when an inhibitor of OCT2, Cimetidine, was added to the assay buffer.
(§3) The assay buffer was also added to the well of the Transwell and treated for a predetermined time. For the Adefovir test, the treatment time was 2 minutes. For the Metformin test, the treatment time was 10 minutes. The cells were then retrieved, a cell suspension was prepared, and the radioisotopes in the cell suspensions were quantified. As a result, the amount of substrate intake into the cell from the cellular basement membrane side was evaluated. The amount of substrate intake was also evaluated in the same manner when an inhibitor Probenecid was added to the assay buffer and when an inhibitor Cimetidine was added to the assay buffer.
(§4) In FIG. 15A and FIG. 15B, “A to C” indicates the amount of substrate intake into the cell from the cellular apical membrane side. […]

OCT2 = molecular target: T2, OCT2 (Homo sapiens, UniProt O15244); test: Membrane transportation evaluation using Transwell: cellular intake of radiolabeled Metformin by monolayer of re-seeded aggregate-cultured cells (Test 7); type: in vitro ADME
T2 sequence (O15244 1-555): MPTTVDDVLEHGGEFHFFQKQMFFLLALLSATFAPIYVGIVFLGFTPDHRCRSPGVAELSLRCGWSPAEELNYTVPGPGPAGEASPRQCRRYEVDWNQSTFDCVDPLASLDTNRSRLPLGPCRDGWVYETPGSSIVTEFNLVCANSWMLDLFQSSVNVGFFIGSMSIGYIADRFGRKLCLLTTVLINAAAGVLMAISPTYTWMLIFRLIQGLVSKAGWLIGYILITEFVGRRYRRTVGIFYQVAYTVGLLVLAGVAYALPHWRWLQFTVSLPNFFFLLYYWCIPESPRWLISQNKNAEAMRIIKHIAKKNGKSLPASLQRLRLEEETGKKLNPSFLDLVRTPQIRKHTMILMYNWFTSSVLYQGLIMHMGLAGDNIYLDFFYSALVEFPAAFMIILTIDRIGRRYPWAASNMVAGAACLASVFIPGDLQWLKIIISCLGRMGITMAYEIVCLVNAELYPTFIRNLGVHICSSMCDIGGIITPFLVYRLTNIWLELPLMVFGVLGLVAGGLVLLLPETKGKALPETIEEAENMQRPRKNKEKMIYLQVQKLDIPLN
Method: as §1, §2, §3, §4

SMILES | transporter responsible for intake (OAT1; concluded from decrease with inhibitor Probenecid) | substrate intake into the cells (OAT1; radiolabeled Adefovir in HBSS buffer, 2 minutes, human renal proximal tubule epithelial cells 18 to 24 hours after re-seeding, FIG. 15A) | amount of cellular intake, basement membrane side (B to C) versus apical membrane side (A to C) (OAT1; radiolabeled Adefovir, 2 minutes, FIG. 15A) | transporter responsible for intake (OCT2; concluded from decrease with inhibitor Cimetidine) | substrate intake into the cells (OCT2; radiolabeled Metformin in HBSS buffer, 10 minutes, human renal proximal tubule epithelial cells 18 to 24 hours after re-seeding, FIG. 15B) | amount of cellular intake, basement membrane side (B to C) versus apical membrane side (A to C) (OCT2; radiolabeled Metformin, 10 minutes, FIG. 15B)
Nc1ncnc2c1ncn2CCOCP(=O)(O)O [Adefovir] | due to OAT1 | taken into the cells | higher from the cellular basement membrane side than from the cellular apical membrane side |  |  | 
CN(C)C(=N)N=C(N)N [Metformin] |  |  |  | due to OCT2 | taken into the cells | higher from the cellular basement membrane side than from the cellular apical membrane side
